# The source made the active and inactive calls. Rule as the data show it, for most assays here: actives have a measured EC50 and inactives only a lower limit.
# What was measured:
# [1] = cytotoxicity toward NIH3T3 fibroblasts, dose response, counter-screen, cell-based, ATP luminescence, mouse fibroblasts (AID 2010); assay type: functional;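 also: cells exposed to compound for about 90 hours before reading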
# [2] = inhibitors of intracellular T. cruzi replication, confirmation, NIH3T3 host cells, beta-gal luminescence (AID 2044); assay type: functional, cell-based;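 also: intracellular parasites grown in NIH/3T3 mouse fibroblasts as host cells; luminescent beta-galactosidase reporter signal from transgenic T. cruzi replicating inside host cells; inhibitors lower the luminescence signal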
# [3] = molecular target: T1, Heat shock factor protein 1 (Mus musculus, UniProt P38532); test: inhibition of MG132-induced HSE-luciferase signal, confirmation, cell-based, NIH3T3, luminescence, dose retest (AID 2382); assay type: functional;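 also: NIH3T3 fibroblasts with HSF1-driven luciferase reporter stressed by proteasome inhibitor MG132; luminescence from HSF1-driven luciferase expression after 8 hours of MG132 stress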
# T1 sequence (P38532 whole entry): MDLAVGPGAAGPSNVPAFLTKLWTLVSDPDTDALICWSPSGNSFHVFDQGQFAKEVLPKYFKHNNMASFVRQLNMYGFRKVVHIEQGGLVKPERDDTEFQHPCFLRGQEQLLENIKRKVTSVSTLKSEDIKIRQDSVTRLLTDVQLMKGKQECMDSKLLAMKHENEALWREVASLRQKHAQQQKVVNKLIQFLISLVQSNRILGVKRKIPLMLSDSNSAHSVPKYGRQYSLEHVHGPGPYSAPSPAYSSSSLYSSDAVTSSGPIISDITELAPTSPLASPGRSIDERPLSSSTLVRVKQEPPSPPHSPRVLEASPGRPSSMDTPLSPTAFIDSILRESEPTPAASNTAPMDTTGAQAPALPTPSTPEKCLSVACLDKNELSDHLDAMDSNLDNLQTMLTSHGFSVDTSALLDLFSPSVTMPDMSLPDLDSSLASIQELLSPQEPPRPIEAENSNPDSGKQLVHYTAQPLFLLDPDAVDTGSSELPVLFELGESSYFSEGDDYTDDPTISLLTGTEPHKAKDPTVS
# H4 = test: Luminescence Cell-Based Dose Response HTS to Identify Activators of 5'UTR Stem-Loop Driven Prion Protein mRNA Translation in H4 Neuroglioblastoma Cells. [Related pubchem assays: 1829 (Project Summary), 1814 (Primary HTS)]; assay type: functional; conditions: Homo sapiens
# [4] = Luminescence Cell-Based Dose Response HTS to Identify Activators of Luciferase Translation or Activity in H4 […] Cells. [Related pubchem assays: 1829 (Project Summary), 1814 (Primary HTS)]; assay type: functional
# Protein RecA = molecular target: T2, Protein RecA (Mycobacterium tuberculosis, UniProt P9WHJ3); test: Fluorescence Cell-Free Homogeneous Dose Retest to Identify Inhibitors of RecA-Intein Splicing Activity. [Related pubchem assays (depositor defined):AID2097, AID2223, AID489010, AID492950]; assay type: functional
# T2 sequence (P9WHJ3 whole entry): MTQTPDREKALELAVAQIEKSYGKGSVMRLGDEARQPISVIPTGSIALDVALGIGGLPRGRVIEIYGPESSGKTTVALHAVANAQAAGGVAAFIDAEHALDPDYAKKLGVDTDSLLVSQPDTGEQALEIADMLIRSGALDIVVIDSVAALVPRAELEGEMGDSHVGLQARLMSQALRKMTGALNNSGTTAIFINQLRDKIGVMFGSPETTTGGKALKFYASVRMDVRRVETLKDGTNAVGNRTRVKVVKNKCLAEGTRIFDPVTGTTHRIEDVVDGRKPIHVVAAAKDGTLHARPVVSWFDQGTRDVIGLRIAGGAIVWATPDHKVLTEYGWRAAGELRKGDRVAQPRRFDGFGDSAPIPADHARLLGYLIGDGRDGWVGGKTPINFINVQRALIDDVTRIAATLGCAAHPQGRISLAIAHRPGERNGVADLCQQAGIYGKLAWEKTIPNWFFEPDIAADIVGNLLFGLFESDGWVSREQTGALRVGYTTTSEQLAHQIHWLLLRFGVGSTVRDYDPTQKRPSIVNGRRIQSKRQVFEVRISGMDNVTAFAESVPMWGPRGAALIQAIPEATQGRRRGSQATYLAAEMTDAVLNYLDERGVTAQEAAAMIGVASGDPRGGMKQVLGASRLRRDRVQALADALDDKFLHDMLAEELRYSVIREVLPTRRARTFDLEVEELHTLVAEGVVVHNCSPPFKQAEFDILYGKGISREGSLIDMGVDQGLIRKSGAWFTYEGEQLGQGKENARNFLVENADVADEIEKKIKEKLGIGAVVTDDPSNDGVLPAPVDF
# [5] = molecular target: T3, Replicative DNA helicase DnaB (Mycobacterium tuberculosis, UniProt P9WMR3); test: DnaB intein splicing inhibitors, dose response, biochemical, cell-free fluorescence (AID 449749); assay type: functional
# T3 sequence (P9WMR3 whole entry): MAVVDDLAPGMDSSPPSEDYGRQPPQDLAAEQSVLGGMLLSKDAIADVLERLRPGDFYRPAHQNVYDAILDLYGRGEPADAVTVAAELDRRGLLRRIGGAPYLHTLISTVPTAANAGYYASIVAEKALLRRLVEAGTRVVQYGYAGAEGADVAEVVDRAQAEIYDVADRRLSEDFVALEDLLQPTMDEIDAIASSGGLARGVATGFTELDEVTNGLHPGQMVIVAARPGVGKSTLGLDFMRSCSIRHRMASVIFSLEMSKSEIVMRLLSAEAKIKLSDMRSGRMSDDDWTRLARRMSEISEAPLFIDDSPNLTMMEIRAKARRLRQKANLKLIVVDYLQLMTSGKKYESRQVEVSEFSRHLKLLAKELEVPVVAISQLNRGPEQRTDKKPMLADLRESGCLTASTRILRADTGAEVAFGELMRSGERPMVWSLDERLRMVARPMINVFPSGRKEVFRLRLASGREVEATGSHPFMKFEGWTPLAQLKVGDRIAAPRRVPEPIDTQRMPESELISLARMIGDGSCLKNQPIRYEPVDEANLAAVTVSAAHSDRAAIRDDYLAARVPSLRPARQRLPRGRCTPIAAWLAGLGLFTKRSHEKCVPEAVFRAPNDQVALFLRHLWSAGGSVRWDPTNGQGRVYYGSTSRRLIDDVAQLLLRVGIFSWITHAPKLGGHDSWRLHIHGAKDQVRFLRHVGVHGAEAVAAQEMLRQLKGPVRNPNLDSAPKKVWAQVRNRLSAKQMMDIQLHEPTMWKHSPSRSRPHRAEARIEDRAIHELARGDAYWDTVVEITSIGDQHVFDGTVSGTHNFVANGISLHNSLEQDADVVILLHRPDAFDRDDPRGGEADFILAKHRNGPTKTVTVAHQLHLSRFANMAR
# Protein skinhead-1 = molecular target: T4, Protein skinhead-1 (Caenorhabditis elegans, UniProt P34707); assay type: functional
# T4 sequence (P34707 whole entry): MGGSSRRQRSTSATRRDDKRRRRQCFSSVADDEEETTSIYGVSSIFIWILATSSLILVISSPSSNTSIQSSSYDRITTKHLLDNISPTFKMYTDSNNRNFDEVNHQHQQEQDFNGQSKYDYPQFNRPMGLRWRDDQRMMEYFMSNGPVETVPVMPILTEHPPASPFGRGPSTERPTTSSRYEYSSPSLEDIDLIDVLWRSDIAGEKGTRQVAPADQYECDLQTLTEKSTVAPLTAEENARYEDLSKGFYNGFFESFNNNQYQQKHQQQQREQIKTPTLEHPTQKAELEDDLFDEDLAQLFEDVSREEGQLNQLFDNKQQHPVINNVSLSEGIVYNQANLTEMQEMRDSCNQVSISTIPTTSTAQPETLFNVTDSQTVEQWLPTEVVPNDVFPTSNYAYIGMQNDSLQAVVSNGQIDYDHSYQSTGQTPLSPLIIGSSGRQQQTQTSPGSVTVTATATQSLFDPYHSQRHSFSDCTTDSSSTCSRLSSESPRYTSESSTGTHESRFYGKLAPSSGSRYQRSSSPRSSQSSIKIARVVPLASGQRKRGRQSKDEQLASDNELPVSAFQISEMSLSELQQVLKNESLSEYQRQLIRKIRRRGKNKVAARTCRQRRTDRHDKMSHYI
smiles,measurement,setting,value
COc1cc(CCN2C(=O)c3cccc4cccc(c34)C2=O)c(S(=O)(=O)N2CCCCCC2)cc1OC,EC50,[1],> 30 µM (not active)
same,EC50,[2],1.9 µM (active)
CC(=O)/C(=N\Nc1ccc(Cl)cc1)Sc1nnc(-c2ccccc2)n1-c1ccccc1,EC50,[3],> 195 µM (not active)
CCC(=O)CCC(=O)c1ccc2ccccc2c1,EC50,[3],> 195 µM (not active)
O=C(OCc1ccccc1)c1ccc2c(c1)-c1ccccc1C2=O,EC50,H4,11.1 µM (active)
same,EC50,[4],14.8 µM (active)
COc1ccc(/C=C2\SC(=S)N(CCC(=O)N(CCO)Cc3ccccc3)C2=O)cc1OC,EC50,[1],> 60 µM (not active)
same,EC50,[2],3.32 µM (active)
N#Cc1cc([N+](=O)[O-])ccc1NC(=O)COC(=O)CCC1CCCCC1,EC50,Protein RecA,3.31 µM (active)
same,AC50,[5],1.72 µM (active)
O=S(=O)(Nc1c(O)ccc2ccccc12)c1ccc(F)cc1,EC50,Protein RecA,1.16 µM (active)
same,AC50,[5],12.2 µM (active)
O=C(CN1CCN(S(=O)(=O)c2ccc(Br)cc2)CC1)Nc1ccccc1C(=O)c1ccccc1,EC50,[1],> 60 µM (not active)
same,EC50,[2],1.08 µM (active)
Cc1cc(=O)n(-c2ccccc2Cl)[nH]1,EC50,Protein RecA,5.4 µM (active)
same,AC50,[5],10.7 µM (active)
O=C(Nc1ccccc1-c1nc2ccccc2s1)c1cccnc1,EC50,[3],> 195 µM (not active)
COc1cc(C2NC(=O)NC(C)=C2C(=O)OCC2CCCO2)ccc1O (stereo unspecified),EC50,[3],> 195 µM (not active)
CCOc1ccc(CNS(=O)(=O)c2c(C)nc3scc(C)n3c2=O)cc1OC,EC50,[3],> 195 µM (not active)
Cn1c(SCC(=O)NCC2CCCO2)ncc(C(=O)Nc2ccc(F)cc2)c1=O (stereo unspecified),EC50,Protein RecA,0.315 µM (active)
same,AC50,[5],0.51 µM (active)
O=C(Nc1ccc(N2CCN(c3ccc(O)cc3)CC2)cc1)Oc1ccccc1,EC50,[3],> 195 µM (not active)
COCCCNC(=O)COc1ccc2oc3c(c2c1)CCCC3,IC50,Protein skinhead-1,> 100 µM (inactive)
C=CCN1C(=O)C(CC(=O)Nc2ccc(OCCC)cc2)N(CCCN2CCN(Cc3ccccc3)CC2)C1=S (stereo unspecified),EC50,[1],> 60 µM (not active)
same,EC50,[2],3.01 µM (active)
CC(Oc1ccc(Cl)cc1)c1ccnn1S(C)(=O)=O (stereo unspecified),IC50,Protein skinhead-1,> 100 µM (inactive)
O=[N+]([O-])c1ccc(OCc2cnc(Cl)s2)cc1,IC50,Protein skinhead-1,50.3 µM (inactive)
O=C(c1cc(-c2ccncc2)nc2ccc(Br)cc12)N1CCN(Cc2ccc3c(c2)OCO3)CC1,EC50,[1],54.9 µM (active)
same,EC50,[2],0.384 µM (active)
C/C(CC(=O)Nc1ccccn1)=N\NC(=O)c1cccc(C)c1,EC50,Protein RecA,7.75 µM (active)
same,AC50,[5],20.1 µM (active)
N#CC1=C(N)Oc2[nH]nc(-c3cccs3)c2C1c1ccoc1 (stereo unspecified),EC50,Protein RecA,7.09 µM (active)
same,AC50,[5],10.4 µM (active)
O=C(Nc1nc(C(F)(F)F)n[nH]1)c1cccs1,EC50,Protein RecA,9.84 µM (active)
same,AC50,[5],3.65 µM (active)
Cc1ccc(-c2nnc(-c3cccs3)o2)cc1,IC50,Protein skinhead-1,35.5 µM (active)
Cc1ccc2cc3cc(C(=O)N4CC(C)CC(C)C4)oc3nc2c1 (stereo unspecified),IC50,Protein skinhead-1,> 100 µM (inactive)
O=C(Nc1ccccc1)c1ccc(N2CCN(c3ccccc3)CC2)c(S(=O)(=O)N2CCOCC2)c1,EC50,[1],> 60 µM (not active)
same,EC50,[2],2.04 µM (active)
Cc1ccc(C)c(S(=O)(=O)N2CCN(C(=O)CCCc3c[nH]c4ccccc34)CC2)c1,EC50,[1],> 60 µM (not active)
same,EC50,[2],4.01 µM (active)
O=C(c1cnn2c(C(F)(F)F)cc(-c3ccco3)nc12)N1CCCc2ccccc21,IC50,Protein skinhead-1,> 100 µM (inactive)
COc1ccc(CCNC(=O)CN(c2ccccc2OC)S(=O)(=O)c2ccc(C)cc2)cc1,EC50,[1],19.3 µM (active)
same,EC50,[2],4.73 µM (active)
O=S(=O)(O)Oc1c[nH]c2ccccc12,EC50,Protein RecA,0.155 µM (active)
same,AC50,[5],1.34 µM (active)
COc1ccc(C=O)cc1CN1CCCN(Cc2ccc(Cl)cc2)S1(=O)=O,EC50,[3],> 195 µM (not active)
COc1ccc(CNC(=O)C2CCN(S(=O)(=O)c3ccc4c(c3)C(C)(C)C(=O)N4C)CC2)cc1,EC50,[3],55.2 µM (active)
Cc1ccc(Cl)c(N/C=C/C(=O)c2ccccc2)c1,IC50,Protein skinhead-1,27.9 µM (active)
Cc1n[nH]c2c1C(c1ccco1)C(C#N)=C(N)O2 (stereo unspecified),EC50,Protein RecA,4.28 µM (active)
same,AC50,[5],54.1 µM (active)
Brc1ccc(-c2nc(-c3ccncc3)no2)o1,IC50,Protein skinhead-1,86.1 µM (inactive)
COCCCn1c(=O)c2ccccc2n(Cc2cccc(C)c2)c1=O,IC50,Protein skinhead-1,> 100 µM (inactive)
CC(C)CCNC(=O)c1cnn2c(C(F)(F)F)cc(-c3ccco3)nc12,IC50,Protein skinhead-1,> 100 µM (inactive)
O=S(=O)(c1cc(Cl)ccc1Cl)N1CCC2(CC1)OCCO2,EC50,[3],> 195 µM (not active)
CCCC(=O)Nc1cccc(NC(=O)c2cccc([N+](=O)[O-])c2C)c1,EC50,[3],20.5 µM (active)
CCOc1ccc2c(c1)-c1c(ssc1=S)C(C)(C)N2,EC50,Protein RecA,3.17 µM (active)
O=C(Nc1cc(-c2ccccc2)n[nH]1)c1ccccc1,IC50,Protein skinhead-1,> 100 µM (inactive)
CCCSc1nc2sc3c(c2c(=O)n1-c1ccc(OC)cc1)CCN(C)C3,EC50,[1],> 30 µM (not active)
same,EC50,[2],0.12 µM (active)
CSc1ccccc1C(=O)NCCOc1cccc(C)c1,IC50,Protein skinhead-1,> 100 µM (inactive)
